This passage reports IC50 results from ChEMBL document CHEMBL4251552, “Synthesis of piperazine sulfonamide analogs as diabetic-II inhibitors and their molecular docking study” (Eur J Med Chem, 2017).

Broadly, the IC50 is the point on the concentration scale where inhibition reaches its midpoint. Lower therefore signals higher potency.

For the assay, the target named is T1, Pancreatic alpha-amylase (Sus scrofa, UniProt P00690).
T1 sequence (P00690 whole entry): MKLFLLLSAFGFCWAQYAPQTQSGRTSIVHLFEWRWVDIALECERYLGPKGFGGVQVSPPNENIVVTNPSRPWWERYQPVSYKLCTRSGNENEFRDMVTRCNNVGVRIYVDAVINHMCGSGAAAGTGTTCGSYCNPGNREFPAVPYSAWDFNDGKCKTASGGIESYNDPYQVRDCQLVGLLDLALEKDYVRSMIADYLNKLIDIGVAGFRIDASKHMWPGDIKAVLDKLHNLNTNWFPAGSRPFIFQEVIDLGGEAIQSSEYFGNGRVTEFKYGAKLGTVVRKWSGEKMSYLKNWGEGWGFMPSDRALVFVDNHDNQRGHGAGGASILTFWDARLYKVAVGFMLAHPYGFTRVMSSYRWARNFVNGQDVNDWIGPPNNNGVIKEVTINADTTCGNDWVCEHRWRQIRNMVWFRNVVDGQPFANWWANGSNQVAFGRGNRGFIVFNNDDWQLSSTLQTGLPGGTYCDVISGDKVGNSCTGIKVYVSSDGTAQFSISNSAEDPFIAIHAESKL
The assay can be described thus: Inhibition of porcine pancreatic alpha-amylase using starch as substrate preincubated for 10 mins followed by substrate addition measured after 10 mins by dinitrosalicylic acid color reagent based assay.

In turn, `Cc1ccc(CN2CCN(S(=O)(=O)c3ccc(F)cc3)CC2)cc1` returned an IC50 of 1570 nM.

In turn, `Cc1ccc(CN2CCN(S(=O)(=O)c3cc(Cl)ccc3Cl)CC2)cc1` came in with an IC50 of 2880 nM.

Compound `Cc1ccc(CN2CCN(S(=O)(=O)c3ccc([N+](=O)[O-])cc3[N+](=O)[O-])CC2)cc1` registered an IC50 of 2930 nM.

Regarding `Cc1ccc(CN2CCN(S(=O)(=O)c3ccccc3[N+](=O)[O-])CC2)cc1`, the IC50 amounted to 3980 nM. The IC50 values of the last two compounds are within 1.5-fold of each other.

As to `Cc1ccc(CN2CCN(S(=O)(=O)c3cc(Cl)c(Cl)cc3Cl)CC2)cc1`, the IC50 amounted to 3520 nM. The IC50 values of the last two compounds are within 1.5-fold of each other.

For `Cc1ccc(CN2CCN(S(=O)(=O)c3ccccc3C)CC2)cc1`, the half-inhibitory concentration (IC50) was 2880 nM.

The compound `Cc1ccc(CN2CCN(S(=O)(=O)c3ccccc3F)CC2)cc1` yielded an IC50 of 3050 nM. The IC50 values of the last two compounds are within 1.5-fold of each other.

`COc1ccc(S(=O)(=O)N2CCN(Cc3ccc(C)cc3)CC2)cc1` displayed an IC50 of 2060 nM.

`Cc1ccc(CN2CCN(S(=O)(=O)c3ccccc3Cl)CC2)cc1` came in with an IC50 of 3200 nM.

Take `Cc1ccc(CN2CCN(S(=O)(=O)c3cccc([N+](=O)[O-])c3)CC2)cc1`: inhibition was half-maximal at 2750 nM (IC50).

On to `Cc1ccc(CN2CCN(S(=O)(=O)c3ccc(Cl)cc3Cl)CC2)cc1`, for which half-maximal inhibition (IC50) was put at 3140 nM.

`Cc1ccc(CN2CCN(S(=O)(=O)c3ccc([N+](=O)[O-])cc3)CC2)cc1` had an IC50 of 2820 nM.

On to `Cc1ccc(CN2CCN(S(=O)(=O)c3cccc(Cl)c3Cl)CC2)cc1`, for which the IC50 stood at 2670 nM. This IC50 and that of the compound before are within 1.5-fold of each other.

`Cc1ccc(CN2CCN(S(=O)(=O)c3cc(Cl)cc(Cl)c3)CC2)cc1`: half-maximal inhibition (IC50) was put at 3560 nM.

In the case of `Cc1ccc(CN2CCN(S(=O)(=O)c3ccc(C)cc3)CC2)cc1`, the 50% inhibitory concentration (IC50) came out at 2870 nM.

In the case of `Cc1ccc(CN2CCN(S(=O)(=O)c3ccc(Cl)cc3)CC2)cc1`, 2350 nM corresponded to half-maximal inhibition (IC50). The IC50 values of the last two compounds are within 1.5-fold of each other.

For `Cc1ccc(CN2CCN(S(=O)(=O)c3cccc(Br)c3)CC2)cc1`, the IC50 is 3450 nM.

With `Cc1ccc(CN2CCN(S(=O)(=O)c3ccc(Cl)c(Cl)c3)CC2)cc1`, it took 2980 nM to reach half-maximal inhibition (IC50). This IC50 and that of the compound before are within 1.5-fold of each other.

As for `Cc1ccc(CN2CCN(S(=O)(=O)c3ccc(Br)cc3)CC2)cc1`, the IC50 stood at 2120 nM.
